Experimental findings from patent publication US20210040073A1, “AZABICYCLO-SUBSTITUTED TRIAZOLE DERIVATIVE, PREPARATION METHOD THEREOF, AND APPLICATION OF SAME IN MEDICINE” (Jiangsu Hengrui Medicine Co., Ltd., priority 2016, published 2021) are described below.

One data set has as its target T1, human V1aR (Homo sapiens, UniProt P37288).
T1 construct: expressed in transfected cells
The experiment in a line: Inhibition activity on human V1aR (Fluo-4 calcium assay, HEK293/human V1aR stably transfected cells, vasopressin 3 nM). Type of data set: cell-based. To be noted: calcium signal. The method, then: The inhibition effect of the compounds of the present invention on the activity of human V1aR protein expressed in HEK293/human V1aR stably transfected cells was determined by the following experimental method:
The pcDNA3.1-V1aR plasmid was transferred into HEK293 cells with the Lipofectamine® 3000 transfection reagent; G418 was added on the next day to screen, and monoclonal cell lines were selected.
HEK293/human V1aR stably transfected cells were inoculated in a 96-well plate with an inoculation density of 25,000 cells/well one day in advance. On the next day, a loading buffer containing Fluo-4 dye was formulated using the reagents in the Fluo-4 NW calcium assay kit, and the culture medium was then removed; 100 μl of the loading buffer containing Fluo-4 dye were added to each well, and the plate was incubated at 37° C. for 30 minutes. After that, the plate was moved to room temperature and equilibrated for 10 minutes. The compounds were formulated into concentration gradients of 10^6, 10^5, 10^4, 10^3, 10^2 and 10^1 nM. 1 μl of the compounds in each concentration was added to each well, and the plate was incubated at room temperature for 10 minutes. […] IC50 values of the compounds were calculated by Graphpad prism software using fluorescence signals corresponding to different concentrations.
The inhibition activity of the compounds of the present invention on human V1aR was determined by the above test, and the obtained IC50 values are shown in Table 2.

For the next data set, the target named is T2, human V2R (Homo sapiens, UniProt P30518).
T2 construct: expressed in transfected cells; host or cells: HEK293 (G418-selected pool)
In words: Inhibition activity on human V2R (cAMP HTRF assay, HEK293/human V2R pool cells, vasopressin). Type of data set: cell-based. The procedure: The inhibition effect of the compounds of the present invention on the activity of human V2R protein expressed in HEK293/human V2R cells was determined by the following experimental method:
The pcDNA3.1-V2R plasmid was transferred into HEK293 cells with the Lipofectamine® 3000 transfection reagent; G418 was added on the next day, and the HEK293/human V2R pool cell lines were obtained.
HEK293/human V2R pool cells were digested with the cell dissociation solution (enzyme-free), thereby dissociating the cells from the cell culture dish into individual cells. After completion, the cell solution was blown well, and centrifuged to remove the supernatant. The cells were re-suspended in the test buffer 1 (1×HBSS+20 mM HEPES+0.1% BSA) and counted. The cell density was adjusted to 1250 cells/5 μl, i.e., 2.5*10^5/ml.
The compounds were formulated into a series of concentrations of 20 mM, 6.67 mM, 2.22 mM, 0.74 mM, 0.25 mM, 0.08 mM, 27.4 μM, 9.14 μM, 3.05 μM, 1.02 μM, 0.34 μM and 0 μM (DMSO) with pure DMSO. The compounds were then formulated into a 4-fold use concentration with the test buffer 2 (test buffer 1+1 mM IBMX).
Agonist: 460 μM vasopressin was used as the mother liquor, formulated as a 2 μM solution with DMSO, which was then diluted to a 0.5 nM solution with the test buffer 2.
Standard: The first point was 20 μl of a stock solution (2848 nM), which was diluted successively to a total of eleven concentrations in a 4-fold concentration gradient with the test buffer 1 from the second point.
1. The well-mixed cells were added to a 384-well plate (5 μl/well) without changing the tip.
2. The test compounds and positive compound formulated were added (2.5 μl/well), and the tips were changed.
3. The plate was centrifuged at 1000 rpm for 1 min, shaken for 30 sec to mix well, and incubated at room temperature for 30 min.
4. The standard curve wells were added with the test buffer 2 (5 μl/well).
5. The agonist formulated was added (2.5 μl/well), and the tips were changed; the plate was centrifuged at 1000 rpm for 1 min, shaken for 30 sec to mix well, and incubated at room temperature for 30 min.
6. cAMP-d2 (a component in the cAMP dynamic 2 kit) and Anti-cAMP-Eu-Cryptate (a component in the cAMP dynamic 2 kit) were formulated in the dark, which were then mixed well with cAMP lysate (a component in the cAMP dynamic 2 kit) in a ratio of 1:4. Each well was added with the formulated cAMP-d2 solution (5 μl/well), followed by addition of Anti-cAMP-Eu-Cryptate (5 μl/well). The plate was shaken for 30 sec to mix well, and incubated in the dark at room temperature for 1 h.
4) Plate reading: The HTRF signals were read by the PheraStar multi-function microplate reader.
The data in this test was processed using the data processing software Graphpad Prism.
The inhibition activity of the compounds of the present invention on human V2R was determined by the above test, and the obtained IC50 values are shown in Table 4.
A general note: TR-FRET usually uses a lanthanide donor and a delayed reading to cut background.

Data set [1] can be described thus: Pharmacokinetics assay in rats after intragastrical administration. To be noted: 2 mg/kg; for AUC / CL/F / MRT / Vd/F: plasma.
Description: Rats were used as test animals. […] The pharmacokinetic behavior of the compounds of the present invention was studied and evaluated in rats.
After an overnight fast, SD rats were administered intragastrically the test compounds at an administration dosage of 2.0 mg/kg and an administration volume of 10.0 mL/kg.
0.2 mL of blood was taken from the orbital sinus before administration and at 0.5, 1.0, 2.0, 4.0, 6.0, 8.0, 11.0 and 24.0 hours after administration. The samples were stored in heparinized tubes, and centrifuged for 10 minutes at 4° C. at 3,500 rpm to separate the blood plasma. The plasma samples were stored at −20° C. The rats were fed 2 hours after administration.
The content of the test compounds in the plasma of rats after intragastrical administration of the test compounds at different concentrations was determined: 25 μL of rat plasma at each time after administration was taken, added with 50 μL of the internal standard solution of camptothecin (100 ng/mL) and 200 μL of acetonitrile, vortex-mixed for 5 minutes, and centrifuged for 10 minutes (4000 rpm). 1.0 μL of the supernatant was taken from the plasma samples for LC/MS/MS analysis.
[2] abbreviates: both, Sprague-Dawley, rat, in vivo, po.

The term IC50 denotes the midpoint of a concentration-inhibition curve. For orientation: half-life means the time needed for the level to fall by half in the phase considered. A low value points to rapid decline. What is called AUC is the area under the concentration-time curve, a measure of exposure. High values mean high exposure, low ones low exposure. What is called CL/F is the apparent clearance, not corrected for the fraction that reaches the circulation. The MRT is a mean duration of stay, worked out from the concentration-time curve. Usually Vd/F stands for the volume of distribution divided by bioavailability. What is called Cmax is the highest concentration seen after dosing.

T1 sequence (P37288 whole entry): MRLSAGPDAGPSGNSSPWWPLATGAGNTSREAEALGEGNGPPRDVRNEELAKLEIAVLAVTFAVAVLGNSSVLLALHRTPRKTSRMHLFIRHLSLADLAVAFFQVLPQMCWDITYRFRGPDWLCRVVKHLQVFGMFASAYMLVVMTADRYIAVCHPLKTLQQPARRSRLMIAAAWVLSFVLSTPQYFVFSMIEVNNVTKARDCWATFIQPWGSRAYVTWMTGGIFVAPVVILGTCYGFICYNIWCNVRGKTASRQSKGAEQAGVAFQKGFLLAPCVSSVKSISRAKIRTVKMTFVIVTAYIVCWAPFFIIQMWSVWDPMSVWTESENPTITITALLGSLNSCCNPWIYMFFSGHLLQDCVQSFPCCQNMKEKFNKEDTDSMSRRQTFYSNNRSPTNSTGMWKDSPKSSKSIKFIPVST
T2 sequence (P30518 whole entry): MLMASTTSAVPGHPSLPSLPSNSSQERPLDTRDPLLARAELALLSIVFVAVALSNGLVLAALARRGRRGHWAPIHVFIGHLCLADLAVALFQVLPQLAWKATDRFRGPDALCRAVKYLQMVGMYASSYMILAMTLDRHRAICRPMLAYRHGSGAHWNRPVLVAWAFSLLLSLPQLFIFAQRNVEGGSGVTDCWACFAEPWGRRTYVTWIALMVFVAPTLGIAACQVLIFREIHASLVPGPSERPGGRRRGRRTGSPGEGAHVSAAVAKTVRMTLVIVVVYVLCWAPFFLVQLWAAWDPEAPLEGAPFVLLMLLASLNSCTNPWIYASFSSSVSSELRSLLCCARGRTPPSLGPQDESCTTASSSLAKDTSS

In the case of `COc1ccc(-n2c(COCCF)nnc2N2C[C@@H]3C[C@]3(c3ccc(F)cc3Cl)C2)cn1` [Example 1, (1S,5R)-1-(2-Chloro-4-fluorophenyl)-3-(5-((2-fluoroethoxy)methyl)-4-(6-methoxypyridin-3-yl)-4H-1,2,4-triazol-3-yl)-3-azabicyclo[3.1.0]hexane], the values for the IC50 at human V1aR and against human V2R were 1 µM and 21.4 µM, respectively.

As for `COCc1nnc(N2C[C@@H]3C[C@]3(c3cccc(F)c3Cl)C2)n1-c1ccc(OC)nc1` [Example 4, (1S,5R)-1-(2-Chloro-3-fluorophenyl)-3-(5-(methoxymethyl)-4-(6-methoxypyridin-3-yl)-4H-1,2,4-triazol-3-yl)-3-azabicyclo[3.1.0]hexane], the concentration for half-maximal inhibition (IC50) worked out at 3.8 µM on human V1aR and 25.7 µM against human V2R.

In the case of `CCOCc1nnc(N2C[C@@H]3C[C@]3(c3ccc(F)cc3Cl)C2)n1-c1ccc(OC)nc1` [Example 6, (1S,5R)-1-(2-Chloro-4-fluorophenyl)-3-(5-(ethoxymethyl)-4-(6-methoxypyridin-3-yl)-4H-1,2,4-triazol-3-yl)-3-azabicyclo[3.1.0]hexane], the 50% inhibitory concentration (IC50) at human V1aR came to 1.7 µM. At human V2R, this compound showed an IC50 of 7.3 µM. Besides, in data set [1] (SD rats, intragastrical), the “Plasma concentration Cmax” value is 135 ± 80.0 ng/mL. This compound gave a half-life in data set [1] (setting [2]) of 3.47 ± 1.72 h. Moreover, in data set [1] (both, Sprague-Dawley, rat, po), the AUC came to 1060 ± 982 ng·h/mL, the apparent clearance CL/F came to 68.9 ± 58.8 mL/min/kg, the MRT was 6.7 ± 0.73 h and the Vd/F was 18 ± 17.4 L/kg.

On to `COCc1nnc(N2C[C@@H]3C[C@]3(c3ccc(F)cc3Cl)C2)n1-c1ccc(OC)nc1` [Example 9, (1S,5R)-1-(2-Chloro-4-fluorophenyl)-3-(5-(methoxymethyl)-4-(6-methoxypyridin-3-yl)-4H-1,2,4-triazol-3-yl)-3-azabicyclo[3.1.0]hexane], for which the half-maximal inhibitory concentration (IC50) on human V1aR was determined as 2.9 µM. At human V2R, the 50% inhibitory concentration (IC50) amounted to 32.6 µM. Besides, the “Half-life T½” value in data set [1] (SD rats, intragastrical) stood at 3.98 ± 3.55 h. The compound further returned a maximum concentration (Cmax) in data set [1] (setting [2]) of 350 ± 142 ng/mL. Also, in data set [1] (both, Sprague-Dawley, rat, po), the AUC worked out at 2040 ± 1020 ng·h/mL, the apparent clearance (CL/F) was determined as 20.2 ± 10.3 mL/min/kg, the mean residence time (MRT) came to 6.23 ± 4.94 h and the Vd/F turned out to be 6 ± 4.44 L/kg.

With `COc1ccc(-n2c(N3C[C@@H]4C[C@]4(c4ccc(F)cc4Cl)C3)nnc2C(F)(F)F)cn1` [Example 12, (1S,5R)-1-(2-Chloro-4-fluorophenyl)-3-(4-(6-methoxypyridin-3-yl)-5-(trifluoromethyl)-4H-1,2,4-triazol-3-yl)-3-azabicyclo[3.1.0]hexane], the IC50 at human V1aR worked out at 3.6 µM; against human V2R, 29.5 µM.
